Target: tau (Homo sapiens, UniProt P10636)
Assay: MCE Phenols Library screening, tau biosensor cell seeding assay (AvZ)
Assay type: cell-based
Conditions: for Z repl 1 / Z Repl 2: Z score; for Z repl 1 / raw data 1: replicate 1; for Z Repl 2 / raw data 2: replicate 2; for AvZ (average z score of seeding, SDs from the mean level of seeding): 10 μM phenol in cell cultures, AD brain homogenate preincubated 16 hours, two biological replicates, positive = catalyzes seeding, negative = inhibits
[1] = average Z score of the two replicates, tau seeding
[2] = average Z score of two replicates, Phenols Library screen
[3] = average Z score of the two replicates, MCE Phenols Library screen
[4] = average puncta of the two replicates
[5] = average Z score of the two replicates, tau biosensor seeding, MCE Phenols Library screen

Chain of tau (P10636 623-695 limits assumed): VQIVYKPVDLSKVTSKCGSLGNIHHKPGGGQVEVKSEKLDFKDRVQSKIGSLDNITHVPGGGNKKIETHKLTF

Row | SMILES | Z repl 1 | Z Repl 2 | av Z [1] | av puncta (average of raw data 1 and 2) | raw data 1 (puncta) | raw data 2 (puncta) | av Z [2] | AvZ (average z score of seeding, SDs from the mean level of seeding) | av Z [3] | av puncta [4] | raw data 1 (raw puncta) | raw data 2 (raw puncta) | av Z [5]
1 | COc1ccc(C[C@@H]2c3cc(Oc4cc(C[C@@H]5c6cc(O)c(OC)cc6CCN5C)ccc4O)c(OC)cc3CCN2C)cc1 [Isoliensinine] | 0.107 | 0.423 | 0.265 | 22459.5 | 27639.6 | 17279.4 |  |  |  |  |  |  | 
2 | C[C@]12CC[C@@H]3c4ccc(O)cc4CC[C@H]3[C@@H]1C[C@@H](O)[C@@H]2O [Estriol] | 0.006 | 0.639 | 0.322 | 23004.4 | 26418.8 | 19589.9 |  |  |  |  |  |  | 
3 | O=c1cc(-c2ccc(O)cc2)oc2cc(O[C@@H]3O[C@H](CO)[C@@H](O)[C@H](O)[C@H]3O)cc(O)c12 [Apigenin 7-glucoside] | 0.518 | -0.371 |  | 20688.8 | 32570.5 | 8807.12 | 0.074 |  |  |  |  |  | 
4 | O=C(O)Cc1ccccc1O [2-Hydroxyphenylacetic acid] | -1.341 | -0.32 |  | 9796.98 | 10246.8 | 9347.15 |  | -0.831 |  |  |  |  | 
5 | O=c1c(O[C@@H]2OC[C@@H](O)[C@H](O)[C@H]2O)c(-c2ccc(O)c(O)c2)oc2cc(O)cc(O)c12 [Reynoutrin] | -0.491 | -0.104 |  |  |  |  |  |  | -0.297 | 16057.3 | 20455.1 | 11659.4 | 
6 | COc1cc2c(c(O)c1OC)-c1c(cc(OC)c(OC)c1OC)C[C@@H](C)[C@@H](C)C2 [Schisanhenol] | -0.397 | -0.108 |  |  |  |  |  |  | -0.253 | 16597.3 | 21578.6 | 11616.1 | 
7 | COc1ccc(-c2coc3cc(O)ccc3c2=O)cc1O [Calycosin] | 0.387 | -0.53 |  | 19046 | 30989.7 | 7102.22 | -0.072 |  |  |  |  |  | 
8 | Oc1ccc2c(c1)OC[C@H]1c3cc4c(cc3O[C@@H]21)OCO4 [(-?)?-Maackiain] | 0.975 | 0.791 |  | 29633.2 | 38055.6 | 21210.9 |  |  |  |  |  |  | 0.883
9 | O=c1oc2cc(O)ccc2c2cc(O)c(O)cc12 [Urolithin C] | -0.755 | -0.316 |  |  | 17290 | 9394.79 |  |  | -0.535 | 13342.4 |  |  | 
10 | COc1cc([C@@H]2OC[C@@H]3[C@H]2CO[C@H]3c2cc(OC)c(O[C@@H]3O[C@H](CO)[C@@H](O)[C@H](O)[C@H]3O[C@@H]3OC[C@](O)(CO)[C@H]3O)c(OC)c2)cc(OC)c1O | 0.189 | 0.95 | 0.57 | 25767.5 | 28623.9 | 22911 |  |  |  |  |  |  | 
11 | O=C(O)[C@H](O)Cc1ccc(O)c(O)c1 [Danshensu] | -0.37 | -1.076 |  |  | 21904.2 | 1269.24 |  | -0.723 |  | 11586.7 |  |  | 
12 | O=C(O)C[C@@H]1C(=O)O[C@H]2[C@H](OC(=O)c3cc(O)c(O)c(O)c3)[C@@H](OC(=O)c3cc(O)c(O)c4c3[C@H]1[C@H](O)C(=O)O4)[C@H](OC(=O)c1cc(O)c(O)c(O)c1)O[C@@H]2COC(=O)c1cc(O)c(O)c(O)c1 [Chebulinic acid] | -2.186 | -1.184 |  | 117.372 | 108.91 | 125.835 |  |  | -1.685 |  |  |  | 
13 | Cc1c(C)c2c(c(C)c1O)CC[C@@](C)(CCC[C@H](C)CCC[C@H](C)CCCC(C)C)O2 [?-Vitamin E] | -0.172 | -0.481 |  |  |  |  |  |  | -0.326 | 15958 | 24288.2 | 7627.82 | 
14 | C[C@@H]1O[C@@H](Oc2c(-c3ccc(O)cc3)oc3cc(O[C@@H]4O[C@@H](C)[C@H](O)[C@@H](O)[C@H]4O[C@@H]4O[C@H](CO)[C@@H](O)[C@H](O)[C@H]4O)cc(O)c3c2=O)[C@H](O)[C@H](O)[C@H]1O [Grosvenorine] | 0.758 | 0.703 |  | 27858.6 | 35445.3 | 20271.9 |  |  |  |  |  |  | 0.73
15 | COC(=O)Cc1ccc(O)cc1 [Methyl 4-hydroxyphenylacetate] | -0.457 | -0.762 |  |  | 20857.9 | 4624.75 |  | -0.61 |  | 12741.3 |  |  | 
16 | Oc1ccc(O)c(O)c1 [1,2,4-Trihydroxybenzene] | -1.617 | -1.152 |  | 3698 | 6931.48 | 464.513 |  | -1.385 |  |  |  |  | 
17 | O=C(O)CC(O)(CC(=O)OCc1ccc(O[C@@H]2O[C@H](CO)[C@@H](O)[C@H](O)[C@H]2O)cc1)C(=O)O (stereo partly drawn) [Parishin E] | -1.04 | -0.216 |  |  | 13862 | 10454.8 |  |  | -0.628 | 12158.4 |  |  | 
18 | CC(C)=CC[C@H](OC(=O)C=C(C)C)C1=CC(=O)c2c(O)ccc(O)c2C1=O [?,?-Dimethylacrylalkannin] | 0.881 | 0.516 | 0.698 | 27599.4 | 36919.9 | 18278.8 |  |  |  |  |  |  | 
19 | COc1cc(O)c2c(=O)c(-c3ccc(O)cc3)coc2c1 [Prunetin] | 3.008 | 2.297 |  | 49877.5 | 62461.3 | 37293.6 |  |  |  |  |  |  | 2.652
20 | O=C(O)CC(=O)OC[C@H]1O[C@@H](Oc2c(-c3ccc(O)c(O)c3)oc3cc(O)cc(O)c3c2=O)[C@H](O)[C@@H](O)[C@@H]1O | -0.599 | -0.958 |  | 10843.5 | 19152.5 | 2534.57 |  |  | -0.779 |  |  |  | 
21 | C[C@@H]1O[C@@H](O[C@H]2[C@H](Oc3cc(O)c4c(=O)cc(-c5ccc(O)cc5)oc4c3)O[C@H](CO)[C@@H](O)[C@@H]2O)[C@H](O)[C@H](O)[C@H]1O [Rhoifolin] | 0.9 | -0.094 | 0.403 | 24460.4 | 37158.3 | 11762.4 |  |  |  |  |  |  | 
22 | COc1cc(O)c2c(=O)c3c(O[C@@H]4O[C@H](CO)[C@@H](O)[C@H](O)[C@H]4O)ccc(O)c3oc2c1 [Swertianolin] | -0.114 | 0.052 |  | 19147.5 | 24974.7 | 13320.3 | -0.031 |  |  |  |  |  | 
23 | COc1cc2c(O)c3c(c(-c4ccc5c(c4)OCO5)c2cc1OC)C(=O)OC3 [Diphyllin] | -0.334 | -0.918 |  |  | 22335.7 | 2966.05 |  |  | -0.626 | 12650.9 |  |  | 

— paper PMC11784839, “Monoaminergic neurotransmitters are bimodal effectors of tau aggregation” (Science Advances, 2025)
